Results on 13 molecules are retold here after patent publication US4139605A, “Water-soluble, non-ionizing, radiopaque compounds and contrast compositions containing the same” (Bracco Industria Chimica S.p.A., priority 1977, dated 1979).

For data set [1], the system named is mouse. In words: Toxicity, LD50 48 hours after intracerebral injection in mice. It counts as in vivo. Conditions: 48 hours after injection. How it is done: (§1) Toxicity is listed as LD50 in mg I/kg body weight 12 days after intravenous injection and 48 hours after intracerebral injection in mice. The osmotic pressure was determined at 37° C. in solutions containing 400 mg I per ml, unless specifically noted otherwise, and is indicated in atmospheres.

Data set [2] can be described thus: Osmotic pressure of aqueous solutions at 37° C. The format is physicochemical. How it is done: as §1
A short description of data set [3]: Solubility in water, methanol and ethanol. The format is physicochemical.
A short description of data set [4]: Viscosity of aqueous solutions at body temperature. Particulars: aqueous solutions containing. The format is physicochemical.
Data set [5] in a line: Stability and storage life of solutions. The format is physicochemical. Conditions: aqueous solutions.
The nature of data set [6]: General toxicity and side effects. The format is in vivo. Particulars: in words.
For data set [7], the system named is mouse. In words: Toxicity, LD50 12 days after intravenous injection in mice. It counts as in vivo. Particulars: 12 days after injection. The method, then: Properties of compounds A, B, C, D of this invention, of the chemically nearest known compounds E, F, and of chemically less closely related known radiopaque compounds G, H, I used heretofore for visualizing blood vessels and cavities of the spinal cord and the brain are listed in the Table hereinbelow. Toxicity is listed as LD50 in mg I/kg body weight 12 days after intravenous injection and 48 hours after intracerebral injection in mice. The osmotic pressure was determined at 37° C. in solutions containing 400 mg I per ml, unless specifically noted otherwise, and is indicated in atmospheres.

A further data set has as its system rabbits. In words: Intracisternal toxicity, LD50 (48 hours) in rabbits. It counts as in vivo. How it is done:
The preferred compounds of the invention are those identified in the table above by letters B and C. […] LD50 (48 hours) in rabbits is about 233 mg I per kg.

Where [8] appears, read: water, 20° C., read-out: solubility in water.

Converted amounts (≈) assume the structure as drawn. “Also recorded” adds a separate entry of the source. Like-named read-outs stand apart in the source and are kept apart here. A value given as a limit tells only on which side of the number the result lay.

As a reminder, the solubility is the concentration that dissolves in the medium under given conditions. Take `CC(O)C(=O)Nc1c(I)c(C(=O)NCCOCCOCCNC(=O)c2c(I)c(NC(=O)C(C)O)c(I)c(C(=O)NC(CO)CO)c2I)c(I)c(C(=O)NC(CO)CO)c1I` (stereo not shown) [Compound A, 1,8-bis-[5,-(1,3-dihydroxyisopropyl)aminocarbonyl-3-(2-hydroxypropionyl)amino-2,4,6-triiodo-benzoylamino]-3,6,dioxaoctane]: the “Toxicity, LD50, intracerebral” value in the data set on mouse [1] came out at 1100 mg I/kg. The molecule also showed an Osmotic pressure in data set [2] (400 mg I per ml) of 8.15 atm. Also, the solubility in ethanol result in data set [3] (boiling ethanol) is “about 2.5%”; in data set [3] (ethanol, in words) it was “sparingly soluble in ethanol”; in data set [3] (ethanol, room temperature), “about 1%”. For the same molecule, the solubility in methanol result in data set [3] (methanol, in words) is “soluble in methanol”. Besides, the solubility in data set [3] (setting [8]) is approximately 500 mg/mL (≈ 329 mM); in data set [3] (water, boiling temperature, read-out: solubility in water), approximately 1000 mg/mL (≈ 658 mM).
As to `CC(O)C(=O)Nc1c(I)c(C(=O)NCCCOCCOCCOCCOCCCNC(=O)c2c(I)c(NC(=O)C(C)O)c(I)c(C(=O)NC(CO)CO)c2I)c(I)c(C(=O)NC(CO)CO)c1I` (stereo not shown) [Compound B, 1,16-bis-[5-(1,3-dihydroxyisopropyl)aminocarbonyl-3-(2-hydroxypropionyl)amino-2,4,6-triiodobenzoylamino]-4,7,10,13-tetraoxahexadecane], the “Toxicity, LD50, intracerebral” value in the data set with mouse [1] was determined as 990 mg I/kg. Also, the solubility in data set [3] (methanol, organic solvent or mixture, boiling methanol, read-out: solubility in methanol) was determined as 500 mg/mL (≈ 306 mM). Besides, in data set [3] (setting [8]), the solubility is approximately 1000 mg/mL (≈ 611 mM). Besides, in data set [4], the viscosity result is “relatively low viscosity”. Also, in data set [5], the stability of solutions result is reported as “stable” and the “storage life of solutions” value is on record as “long storage life”. Besides, the side effects entry in data set [6] was “lack of side effects”.
`CC(O)C(=O)Nc1c(I)c(C(=O)NC(CO)CO)c(I)c(C(=O)N(C)CCOCCOCCOCCN(C)C(=O)c2c(I)c(NC(=O)C(C)O)c(I)c(C(=O)NC(CO)CO)c2I)c1I` (stereo not shown) [Compound C, 1,11-bis [N-methyl-N-{5-(1,3-dihydroxyisopropyl)aminocarbonyl-3-(2-hydroxypropionyl)amino-2,4,6-triiodobenzoyl}-amino]-3,6,9-trioxaundecane]: the “Toxicity, LD50, intravenous” value with mouse [7] was determined as 14000 mg I/kg. Moreover, the “Toxicity, LD50, intracerebral” value with mouse [1] stood at 1130 mg I/kg. Further, the Osmotic pressure in data set [2] (400 mg I per ml) stood at 10.59 atm. Also, in the data set with rabbits (in words), the intracisternal toxicity result is on record as “particularly low”. The “LD50 (48 hours), intracisternal” value in the data set on rabbits (rabbits, 48 hours) is listed as “about 233 mg I per kg”. Also, in data set [3] (ethanol, in words), the solubility in ethanol result was “only moderately well in ethanol”. For the same molecule, in data set [3] (water, in words), the solubility in water entry is reported as “dissolves readily in water”. The viscosity entry in data set [4] is “relatively low viscosity”. In data set [5], the stability of solutions entry is reported as “stable” and the “storage life of solutions” value is on record as “long storage life”. For the same molecule, the side effects entry in data set [6] is given as “lack of side effects”.
Consider `CC(O)C(=O)Nc1c(I)c(C(=O)NC(CO)CO)c(I)c(C(=O)N(C)CCCOCCOCCOCCOCCCN(C)C(=O)c2c(I)c(NC(=O)C(C)O)c(I)c(C(=O)NC(CO)CO)c2I)c1I` (stereo not shown) [Compound D, 1,16-bis-[N-methyl-N-{5-(1,3-dihydroxyisopropyl)aminocarbonyl-3-(2-hydroxypropionyl)amino-2,4,6-triiodobenzoyl}amino]-4,7,10,13-tetraoxahexadecane], for which the “Toxicity, LD50, intracerebral” value with mouse [1] was found to be 1420 mg I/kg. For the same molecule, the Osmotic pressure in data set [2] (400 mg I per ml) is reported as 9.42 atm. The solubility in methanol entry in data set [3] (methanol, in words) was “soluble in methanol”. For the same molecule, the solubility in water entry in data set [3] (water, in words) is on record as “dissolves very readily in water; also recorded: readily dissolved in water”.
Take `CC(O)C(=O)Nc1c(I)c(C(=O)NC(CO)CO)c(I)c(C(=O)NC(CO)CO)c1I` (stereo not drawn) [E, 5-α-hydroxypropionylamino-2,4,6-triiodo-isophthalic acid-bis-(1,3-dihydroxyisopropylamide)]: the “Toxicity, LD50, intravenous” value in the data set with mouse [7] is listed as 21800 mg I/kg. In the data set with mouse [1], the “Toxicity, LD50, intracerebral” value is on record as 1500 mg I/kg. Besides, in data set [2] (400 mg I per ml), the Osmotic pressure is recorded as 22.2 atm.
For `CC(O)C(=O)Nc1c(I)c(C(=O)NCCCOCCOCCOCCOCCCNC(=O)c2c(I)c(NC(=O)C(C)O)c(I)c(C(=O)NC(C)(CO)CO)c2I)c(I)c(C(=O)NC(C)(CO)CO)c1I` (stereo not shown) [Example 9, 1,16-bis-[5-(1,3-dihydroxy-2-methyl-2propyl)aminocarbonyl-3-(2-hydroxypropionyl)amino-2,4,6-triiodo-benzoylamino]-4,7,10,13tetraoxahexadecane], in data set [3] (water, in words), the solubility in water entry is given as “dissolves readily in water”.
For the molecule `CC(O)C(=O)Nc1c(I)c(C(=O)NCCOCCOCCOCCOCCNC(=O)c2c(I)c(NC(=O)C(C)O)c(I)c(C(=O)NC(C)(CO)CO)c2I)c(I)c(C(=O)NC(C)(CO)CO)c1I` (stereo not shown) [Example 10, 1,14-bis-[5-(1,3-dihydroxy-2methyl-2-propyl)aminocarbonyl-3-(2-hydroxypropionyl)amino-2,4,6-triiodo-benzoylamino]-3,6,9,12-tetraoxatetradecane], the solubility in water entry in data set [3] (water, in words) is on record as “dissolved readily in water”.
Turning to `CC(O)C(=O)Nc1c(I)c(C(=O)NCCOCCNC(=O)c2c(I)c(NC(=O)C(C)O)c(I)c(C(=O)NC(C)(CO)CO)c2I)c(I)c(C(=O)NC(C)(CO)CO)c1I` (stereo not shown) [Example 11, 1,5-Bis-[5-(1,3-dihydroxy-2-methyl-2-propyl)aminocarbonyl-3-(2-hydroxypropionyl)amino-2,4,6-triiodo-benzoylamino]-3-oxapentane], in data set [3] (water, per 100 ml, 20° C., read-out: solubility in water), the solubility is more than 1000 mg/mL.
For `O=C(CO)Nc1c(I)c(C(=O)NCCOCCOCCOCCOCCNC(=O)c2c(I)c(NC(=O)CO)c(I)c(C(=O)NC(CO)CO)c2I)c(I)c(C(=O)NC(CO)CO)c1I` [Example 12, 1,14-bis-[5-(1,3-dihydroxyisopropyl)aminocarbonyl-3-hydroxy-acetylamino-2,4,6-triiodo-benzoylamino]-3,6,9,12-tetraoxa-tetradecane], the solubility in water entry in data set [3] (water, in words) is listed as “readily dissolved in water”.
As to `CC(=O)Nc1c(I)c(C(=O)N[C@H]2C(O)O[C@H](CO)[C@@H](O)[C@@H]2O)c(I)c(N(C)C(C)=O)c1I` (stereo partly shown) [F, 3-acetylamino-5-N-methyl-acetylamino-2,4,6-triiodo-benzoyl-glucosamine], the “Toxicity, LD50, intravenous” value with mouse [7] turned out to be 10200 mg I/kg. In the data set on mouse [1], the “Toxicity, LD50, intracerebral” value worked out at 1400 mg I/kg. For the same molecule, the Osmotic pressure in data set [2] (400 mg I per ml) is reported as 14.7 atm.
Consider `CNC(=O)c1c(I)c(NC(=O)CCCCC(=O)Nc2c(I)c(C(=O)O)c(I)c(C(=O)NC)c2I)c(I)c(C(=O)O)c1I` [G, 5,5'-adipoyldiimino-bis-(2,4,6-triiodo-N-methyl-isophthalamic acid)], for which the “Toxicity, LD50, intravenous” value in the data set on mouse [7] is on record as 5500 mg I/kg. Besides, the “Toxicity, LD50, intracerebral” value in the data set with mouse [1] is recorded as 600 mg I/kg. Besides, in data set [2] (280 mg I/ml), the Osmotic pressure stood at 27.5 atm.
With `CNC(=O)c1c(I)c(NC(=O)CN(CC(=O)Nc2c(I)c(C(=O)O)c(I)c(C(=O)NC)c2I)CC(=O)Nc2c(I)c(C(=O)O)c(I)c(C(=O)NC)c2I)c(I)c(C(=O)O)c1I` [H, 5,5',5"-(nitrilotriacetyl-triimino-tris-)-2,4,6-triiodo-N'-methyl-isophthalamic acid], in the data set on mouse [7], the “Toxicity, LD50, intravenous” value is 5800 mg I/kg. In data set [2] (400 mg I per ml), this molecule returned an Osmotic pressure of 36.2 atm.
Turning to `CC(=O)Nc1c(I)c(NC(C)=O)c(I)c(C(=O)O)c1I` [I, 3,5-bis-acetylamino-2,4,6-triiodobenzoic acid], the “Toxicity, LD50, intravenous” value with mouse [7] came to 7600 mg I/kg.
